# Experiments:
# Erysiphe graminis = assay: Foliar fungal disease control, Erysiphe graminis (barley); assay type: in vivo; details: 100 ppm spray plus root drench (approximately 40 ppm a.i/dry soil); inoculated 24 hours before treatment
# Apple = assay: Whole plant screen for plant growth regulator activity, apple (AP); assay type: in vivo, Apple (Red Delicious); details: 4000 ppm (4 kg/ha), visual score after 2-6 weeks
# Summary of the method: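 Growth-regulator effects were judged by eye on glasshouse plants 2-6 weeks post-spray (timing varying with season), using formulation blanks for comparison. Application rate was 4000 ppm, equivalent to 4 kg/ha in 1000 l/ha.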
# Maize = assay: Whole plant screen for plant growth regulator activity, maize (MZ); assay type: in vivo, Maize (Earliking); details: 4000 ppm (4 kg/ha), visual score after 2-6 weeks
# Summary of the method: (§1)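 Plants were sprayed with compound at 4000 ppm (4 kg/ha in a 1000 l/ha field volume) by tracksprayer and kept in a glasshouse under a 16 h photoperiod: maize and rice at 25° C. day/22° C. night, wheat and barley at 16° C. day/13° C. night. Morphology was scored visually after 2-6 weeks against formulation blanks.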
# Plasmopara viticola = assay: Foliar fungal disease control, Plasmopara viticola (vine); assay type: in vivo; details: 100 ppm spray plus root drench (approximately 40 ppm a.i/dry soil), one or two days before inoculation
# Apples [1] = assay: Intermediate Retardant Test, apples, overall spray; assay type: in vivo, Apples (Red Delicious); details: approximately 28 days, Table VIII
# Source text: Three species are involved in this test RICE, SPRING-BARLEY and APPLES. The variety and growth stages at spray are outlined in Table V. Compounds were applied at 500 ppm and 2000 ppm respectively (0.5 kg and 2 kg/ha^-1 at a field volume of 1000 l/ha^-1) as an overall spray except in the case of certain tests on APPLES. This gives a foliar and root component in the test, i.e., this test will detect the activity of both root and foliar acting compounds. The intermediate retardant test on APPLES of which the results are given in Table IX was different, in that a foliar (only) spray at 2000 ppm was compared with a root drench, also at 2000 ppm. The rice was grown in 4" `paddy` pots, i.e., the roots and bottom of the stems are immersed in water under conditions corresponding to those in paddy fields. Spring barley and apples were grown in 4" pots. The plants were assessed for height to top-most ligule at approximately 28 days after treatment for spring barley and rice and for height to apex at approximately 28 days after the treatment for apples. In each case the result for the 500 ppm and 2000 ppm test for each compound is compared to the height of the formulation blank in that test, presented as a percentage reduction in height compared to the formulation blank.
# Barley = assay: Whole plant screen for plant growth regulator activity, barley (BR); assay type: in vivo, Barley (Atem); details: for G = Greening effect / I = Interligular or internodal length reduction / R = Retardation / T = Tillering or side shooting: BR, 4000 ppm (4 kg/ha), visual score after 2-6 weeks; for T = Tillering or side shooting: * = decrease in tillering
# Summary of the method: as §1
# Wheat = assay: Whole plant screen for plant growth regulator activity, wheat (WW); assay type: in vivo, Wheat (Timmo); details: WW, 4000 ppm (4 kg/ha), visual score after 2-6 weeks; for T = Tillering or side shooting: * = decrease in tillering
# Summary of the method: as §1
# Spring Barley = assay: Intermediate Retardant Test, spring barley; assay type: in vivo, Spring Barley (Atem/kym); details: Hordeum vulgare, 672 h, overall spray, approximately 28 days, Table VII, read-out: Percentage Reduction in Height of Spring Barley (Compared to formulation blank)
# Summary of the method: (§2)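 Overall spray at 500 and 2000 ppm (0.5 and 2 kg/ha^-1 at 1000 l/ha^-1); for apples, a 2000 ppm foliar-only spray was also compared with a 2000 ppm root drench. Rice grew in flooded 4" paddy pots, barley and apples in 4" pots. About 28 days after treatment, height (to top-most ligule, or to apex for apples) was recorded as % reduction versus formulation blank.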
# Rice [2] = assay: Whole plant screen for plant growth regulator activity, rice (RC); assay type: in vivo, Rice (Ishikari); details: 4000 ppm (4 kg/ha), visual score after 2-6 weeks; for T = Tillering or side shooting: * = decrease in tillering
# Summary of the method: as §1
# Pyricularia oryzae = assay type: in vivo; details: 100 ppm spray plus root drench (approximately 40 ppm a.i/dry soil), one or two days before inoculation
# Rice [3] = assay: Intermediate Retardant Test, rice; assay type: in vivo, Rice (Ishikari); details: Oryza sativa, 672 h, overall spray, approximately 28 days, Table VI, read-out: Percentage Reduction in Height of Rice (Compared to formulation blank)
# Summary of the method: as §2
# Phytophthora infestans = assay type: in vivo; details: 100 ppm spray plus root drench (approximately 40 ppm a.i/dry soil), one or two days before inoculation
# Puccinia recondita = assay: Foliar fungal disease control, Puccinia recondita (wheat); assay type: in vivo; details: 100 ppm spray plus root drench (approximately 40 ppm a.i/dry soil), one or two days before inoculation
# Cercospora arachidicola = assay: Foliar fungal disease control, Cercospora arachidicola (peanut); assay type: in vivo; details: 100 ppm spray plus root drench (approximately 40 ppm a.i/dry soil), one or two days before inoculation
# Apples [4] = assay: Intermediate Retardant Test, apples, foliar spray compared with root drench; assay type: in vivo, Apples (Red Delicious); details: 672 h, approximately 28 days, Table IX, read-out: Percentage Reduction in Height of Apples (Compared to formulation blank); for percent reduction in plant height at 2000 ppm: 2000 ppm (Foliar); for percent reduction in plant height at 2000 µg/mL: soil, 2000 pmm (Root), root drench
# Summary of the method: as §2
# Tomato = assay: Whole plant screen for plant growth regulator activity, tomato (TO); assay type: in vivo, Tomato (Ailsa Craig); details: 4000 ppm (4 kg/ha), visual score after 2-6 weeks
# Summary of the method: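 Tomato (Ailsa Craig), one plant per 3-inch peat pot, sprayed at 2–2½ leaves with 4000 ppm (4 kg/ha in 1000 l/ha) by track sprayer. Glasshouse 25 °C day/22 °C night, 16 h photoperiod; morphology visually scored after 2–6 weeks against formulation blanks.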
# Venturia inaequalis = assay: Foliar fungal disease control, Venturia inaequalis (apple); assay type: in vivo; details: 100 ppm spray plus root drench (approximately 40 ppm a.i/dry soil), one or two days before inoculation
SMILES,"disease control, ERYSIPHE GRAMINIS (BARLEY) (Erysiphe graminis)",I = Interligular or internodal length reduction (Apple),R = Retardation (Apple),"disease control, PLASMOPARA VITICOLA (VINE) (Plasmopara viticola)",G = Greening effect (Barley),I = Interligular or internodal length reduction (Barley),R = Retardation (Barley),R = Retardation (Wheat),T = Tillering or side shooting (Wheat),percent reduction in plant height at 500 ppm (Spring Barley) [%],percent reduction in plant height at 2000 ppm (Spring Barley) [%],G = Greening effect (Rice [2]),I = Interligular or internodal length reduction (Rice [2]),R = Retardation (Rice [2]),"disease control, P[…] (RICE) (Pyricularia oryzae)",Percent reduction in rice height vs formulation blank at 500 ppm (Rice [3]) [%],Percent reduction in rice height vs formulation blank at 2000 ppm (Rice [3]) [%],"disease control, PH[…] (TOMATO) (Phytophthora infestans)","disease control, PUCCINIA RECONDITA (WHEAT) (Puccinia recondita)","disease control, CERCOSPORA ARACHIDICOLA (PEANUT) (Cercospora arachidicola)",other results
"CCCCC#CC(O)(c1cncnc1)C(C)C (stereo not shown) [Compound 1, 2-methyl-1-(hex-1-yne)-1-(pyrimidin-5-yl)-propan-1-ol]",4,3 (61-100%),3 (61-100%),0 (60-100% of disease on untreated plants),2 (31-60%),3 (61-100%),3 (61-100%),3 (61-100%),2 (31-60%),1.3,12.1,2 (31-60%),3 (61-100%),2 (31-60%),0 (60-100% of disease on untreated plants),6.06,23,0 (60-100% of disease on untreated plants),0 (60-100% of disease on untreated plants),0 (60-100% of disease on untreated plants),T = Tillering or side shooting (Apple; * = decrease in tillering): 1 (10-30%); I = Interligular or internodal length reduction (Maize): 2 (31-60%); R = Retardation (Maize): 2 (31-60%); Percentage Reduction in Height of Apples (Compared to formulation blank) (Apples [1]; 500 ppm): 10.8%; Percentage Reduction in Height of Apples (Compared to formulation blank) (Apples [1]; 2000 ppm): 39.2%; T = Tillering or side shooting (Barley): 1 (10-30%); G = Greening effect (Wheat): 1 (10-30%); T = Tillering or side shooting (Rice [2]): 3 (61-100%)
"CC(C)(C)C(O)(C#CCCCCl)c1cncnc1 (stereo not shown) [Compound 19, 2,2-Dimethyl-1-(5-chloropent-1-yne)-1-(pyrimidin-5-yl)-propan-1-ol]",4,3 (61-100%),3 (61-100%),0 (60-100% of disease on untreated plants),1 (10-30%),3 (61-100%),3 (61-100%),3 (61-100%),3 (61-100%),31,57,2 (31-60%),3 (61-100%),2 (31-60%),0 (60-100% of disease on untreated plants),11,39,0 (60-100% of disease on untreated plants),4,4,G = Greening effect (Apple): 1 (10-30%); percent reduction in plant height at 2000 ppm (Apples [4]): 54%; percent reduction in plant height at 2000 µg/mL (Apples [4]): 65%; G = Greening effect (Tomato): 2 (31-60%); I = Interligular or internodal length reduction (Tomato): 2 (31-60%); R = Retardation (Tomato): 2 (31-60%); A = Apical damage (Barley; 4000 ppm): 3 (61-100%); T = Tillering or side shooting (Barley): 3 (61-100%); I = Interligular or internodal length reduction (Wheat): 3 (61-100%)
CC(C)CC#CC(O)(c1cncnc1)C(C)(C)C (stereo not shown) [Compound 16],4,3 (61-100%),3 (61-100%),0 (60-100% of disease on untreated plants),2 (31-60%),2 (31-60%),3 (61-100%),3 (61-100%),3 (61-100%),66,88,2 (31-60%),3 (61-100%),3 (61-100%),3 (trace - 5% of disease on untreated plants),59,65,0 (60-100% of disease on untreated plants),3 (trace - 5% of disease on untreated plants),4,"G = Greening effect (Apple): 3 (61-100%); percent reduction in plant height at 2000 ppm (Apples [4]): 6%; percent reduction in plant height at 2000 µg/mL (Apples [4]): 47%; G = Greening effect (Maize): 2 (31-60%); I = Interligular or internodal length reduction (Maize): 3 (61-100%); R = Retardation (Maize): 3 (61-100%); T = Tillering or side shooting (Maize; * = decrease in tillering): 1 (10-30%); G = Greening effect (Tomato): 2 (31-60%); I = Interligular or internodal length reduction (Tomato): 3 (61-100%); R = Retardation (Tomato): 3 (61-100%); G = Greening effect (Wheat): 2 (31-60%); I = Interligular or internodal length reduction (Wheat): 3 (61-100%); T = Tillering or side shooting (Rice [2]): 1 (10-30%); disease control, VENTURIA INAEQUALIS (APPLE) (Venturia inaequalis): 4"
